Data on two molecules can be found in publication PMC6175823, “Identification of novel acetylcholinesterase inhibitors designed by pharmacophore-based virtual screening, molecular docking and bioassay” (Scientific Reports, 2018).

In assay [1] the target is T1, horse butyrylcholinesterase (Equus caballus, UniProt P81908).
T1 construct: purchased Sigma (St. Louis, MO)
Kind of assay: biochemical. It is filed as biochemical. The source says:
Acetylcholinesterase from electrophorus electricus (electric eel), horse butyrylcholinesterase, Acetylcholine iodide, S-butyrylthiocholine chloride and 5,5′-dithio-bis-nitrobenzoic acid (DTNB) were purchased from the Sigma (St. Louis, MO) while bovine serum albumin (BSA) purchased from Research and Diagnostic Technology (RDT). Buffers and other chemicals were purchases from pure chemicals as a pure experimental grade. All the reagents and experimental conditions were same as described by previous reports. […] Acetylcholinesterase and butyrylcholinesterase inhibition was performed spectrometrically using acetylthiocholine and butyrylthiocholine as a substrate. Experiment was performed with slight modification in the method described by Ellman et al.[78]. Then, […] sodium phosphate buffer (pH 8.0), enzyme preparation and different concentration of test compound was mixed and incubated for 30 min followed by the addition of DTNB and the reactions was initiated by adding respective enzyme substrate like acetylthiocholine iodide, butyrylthiocholine chloride for Acetylcholinesterase and butyrylcholinesterase inhibition assay respectively. The hydrolysis of acetylthiocholine or butyrylthiocholineyield a dark yellow 5-thio-2-nitrobenzoate anion because of the reaction between DTNB with enzyme and enzyme substrate. […] Solvent used for compound dilution was used for the negative control. Percentage inhibition was calculated taking negative control as 100%.

In assay [2] the target is T2, Acetylcholinesterase from electrophorus electricus (electric eel) (Electrophorus electricus, UniProt O42275).
T2 construct: purchased Sigma (St. Louis, MO)
Kind of assay: biochemical. The settings on record: modified Ellman's method, eeAChE; read-out: AchE IC50. The source says: Acetylcholinesterase from electrophorus electricus (electric eel), horse butyrylcholinesterase, Acetylcholine iodide, S-butyrylthiocholine chloride and 5,5′-dithio-bis-nitrobenzoic acid (DTNB) were purchased from the Sigma (St. Louis, MO) while bovine serum albumin (BSA) purchased from Research and Diagnostic Technology (RDT). Buffers and other chemicals were purchases from pure chemicals as a pure experimental grade. All the reagents and experimental conditions were same as described by previous reports. […] Acetylcholinesterase and butyrylcholinesterase inhibition was performed spectrometrically using acetylthiocholine and butyrylthiocholine as a substrate. Experiment was performed with slight modification in the method described by Ellman et al.[78]. Then, […] sodium phosphate buffer (pH 8.0), enzyme preparation and different concentration of test compound was mixed and incubated for 30 min followed by the addition of DTNB and the reactions was initiated by adding respective enzyme substrate like acetylthiocholine iodide, butyrylthiocholine chloride for Acetylcholinesterase and butyrylcholinesterase inhibition assay respectively. The hydrolysis of acetylthiocholine or butyrylthiocholineyield a dark yellow 5-thio-2-nitrobenzoate anion because of the reaction between DTNB with enzyme and enzyme substrate. […] Percentage inhibition was calculated taking negative control as 100%.
(Ellman's reagent forms a yellow product with free thiols.)

For a further assay, the system named is bAchE. Conditions: read-out: bAchE IC50; Tacrine (Ellman method); source not given; cited from earlier work.

SMILES strings stand for the structures. “Also recorded” adds a separate entry of the source. Where only a bound is given, the exact number is not on record here.

T1 sequence (P81908 whole entry): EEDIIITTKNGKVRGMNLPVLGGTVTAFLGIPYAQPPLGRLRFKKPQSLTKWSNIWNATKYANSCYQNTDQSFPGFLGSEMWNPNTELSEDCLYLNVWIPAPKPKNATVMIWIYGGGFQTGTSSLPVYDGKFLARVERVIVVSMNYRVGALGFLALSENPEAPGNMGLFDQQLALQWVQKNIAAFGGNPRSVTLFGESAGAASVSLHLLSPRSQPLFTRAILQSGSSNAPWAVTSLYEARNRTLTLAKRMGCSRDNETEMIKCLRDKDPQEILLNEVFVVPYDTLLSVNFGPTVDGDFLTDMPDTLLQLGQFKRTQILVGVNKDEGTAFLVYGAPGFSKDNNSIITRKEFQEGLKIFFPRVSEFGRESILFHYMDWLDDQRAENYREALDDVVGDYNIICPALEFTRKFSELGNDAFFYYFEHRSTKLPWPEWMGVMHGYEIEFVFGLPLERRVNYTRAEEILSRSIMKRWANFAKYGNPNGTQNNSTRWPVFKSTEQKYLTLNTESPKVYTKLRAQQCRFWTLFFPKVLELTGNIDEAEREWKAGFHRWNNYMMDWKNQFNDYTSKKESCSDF
T2 sequence (O42275 24-633): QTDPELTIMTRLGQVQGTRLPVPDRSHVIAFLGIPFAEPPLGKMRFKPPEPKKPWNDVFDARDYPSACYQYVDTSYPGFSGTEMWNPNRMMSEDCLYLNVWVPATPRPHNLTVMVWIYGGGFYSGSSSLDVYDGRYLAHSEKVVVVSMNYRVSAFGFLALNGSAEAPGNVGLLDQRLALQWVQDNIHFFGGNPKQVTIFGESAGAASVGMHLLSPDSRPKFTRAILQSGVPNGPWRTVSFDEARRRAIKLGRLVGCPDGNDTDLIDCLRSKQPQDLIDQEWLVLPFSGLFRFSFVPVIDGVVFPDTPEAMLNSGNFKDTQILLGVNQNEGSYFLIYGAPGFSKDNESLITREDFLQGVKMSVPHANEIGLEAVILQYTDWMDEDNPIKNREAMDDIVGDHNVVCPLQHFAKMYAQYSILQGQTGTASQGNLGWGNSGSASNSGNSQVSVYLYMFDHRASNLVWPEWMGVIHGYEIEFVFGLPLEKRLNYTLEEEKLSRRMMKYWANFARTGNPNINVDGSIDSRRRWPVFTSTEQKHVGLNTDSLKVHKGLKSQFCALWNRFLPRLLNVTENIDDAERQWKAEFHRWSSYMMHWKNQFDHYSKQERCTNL

`COc1ccccc1OCCN(Cc1ccccc1)CC(O)CC(O)c1cccc2[nH]c3ccccc3c12` (stereo not shown) [6a, 4-(benzyl(2-(2-methoxyphenoxy)ethyl)amino)-1-(9H-carbazol-4-yl)butane-1,3-diol]: the IC50 – broadly, the concentration at which inhibition is half-maximal – in assay [1] (modified Ellman's method, horse BuChE, read-out: bAchE IC50) was greater than 500 µM; in assay [2], 66 µM. The “effect against BchE” value in assay [1] (result in words) was “without inhibiting; also recorded: did not showed the effect”.

As for `Nc1c2c(nc3ccccc13)CCCC2` [Tacrine], the IC50 in the assay on bAchE is 0.058 µM.
